Here are results for 27 compounds from patent US8163921B2, “Hepatitis C virus inhibitors” (Bristol-Myers Squibb Company, priority 2008, dated 2012).

pIC50: −log10 of the molar value.

By pIC50 is commonly meant −log10 of the IC50, conventionally taken in molar units.

The target of one test is T1, HCV NS3/4A protease complex, BMS strain (UniProt P27958, C1454S/C1711G, species not given).
T1 construct: other: HCV NS3/4A enzyme assay; class symbols; numeric values; fused on or other part: three-lysine solubilising tail at the C-terminus of NS4A; purified on Ni-NTA from the pET21b vector (His tag implied)
In words: FRET peptide assay to monitor HCV NS3/4A proteolytic activity (BMS strain). Type of test: biochemical, HCV genotype 1a. The conditions noted are these: read-out: IC50 Range; HCV NS3/4A enzyme assay; class symbols. An excerpt: HCV NS3 protease complexes, derived from the BMS strain, H77 strain or J4L6S strain, were generated, as described below. These purified recombinant proteins were generated for use in a homogeneous assay (see below) to provide an indication of how effective compounds of the present disclosure would be in inhibiting HCV NS3 proteolytic activity.
Serum from an HCV-infected patient was obtained from Dr. T. Wright, San Francisco Hospital. An engineered full-length cDNA (compliment deoxyribonucleic acid) template of the HCV genome (BMS strain) was constructed from DNA fragments obtained by reverse transcription-PCR (RT-PCR) of serum RNA (ribonucleic acid) and using primers selected on the basis of homology between other genotype 1a strains. From the determination of the entire genome sequence, a genotype 1a was assigned to the HCV isolate according to the classification of Simmonds et al. (See P Simmonds, K A Rose, S Graham, S W Chan, F McOmish, B C Dow, E A Follett, P L Yap and H Marsden, J. Clin. Microbiol., 31(6), 1493-1503 (1993)). […] The infectious clones, H77 (1a genotype) and J4L6S (1b genotype) were obtained from R. Purcell (NIH) and the sequences are published in Genbank (AAB67036, see Yanagi, M., Purcell, R. H., Emerson, S. U. and Buldi, J. Proc. Natl. Acad. Sci. U.S.A. 94(16),8738-8743 (1997); AF054247, see Yanagi, M., St Claire, M., Shapiro, M., Emerson, S. U., Purcell, R. H. and Bukh, J, Virology 244 (1), 161-172. (1998)).
NS3/4A protease complex-containing fractions were pooled and loaded on a desalting column Superdex-S200 pre-equilibrated with buffer D (25 mM HEPES, pH 7.5, 20% glycerol, 300 mM NaCl, 0.2% TritonX-100, 10 mM βMB). Sample was loaded at a flow rate of 1 mL/min. NS3/4A protease complex-containing fractions were pooled and concentrated to approximately 0.5 mg/ml. The purity of the NS3/4A protease complexes, derived from the BMS, H77 and J4L6S strains, were judged to be greater than 90% by SDS-PAGE and mass spectrometry analyses. The enzyme was stored at −80° C., thawed on ice and diluted prior to use in assay buffer.
The purpose of this in vitro assay was to measure the inhibition of HCV NS3 protease complexes, derived from the BMS strain, H77 strain or J4L6S strain, as described above, by compounds of the present disclosure. This assay provides an indication of how effective compounds of the present disclosure would be in inhibiting HCV NS3 proteolytic activity.
In order to monitor HCV NS3/4A protease activity, an NS3/4A peptide substrate was used. The substrate was RET S1 (Resonance Energy Transfer Depsipeptide Substrate; AnaSpec, Inc. cat #22991)(FRET peptide), described by Taliani et al. in Anal. Biochem. 240(2):60-67 (1996). The sequence of this peptide is loosely based on the NS4A/NS4B natural cleavage site for the HCV NS3 protease except there is an ester linkage rather than an amide bond at the cleavage site. The peptide also contains a fluorescence donor, EDANS, near one end of the peptide and an acceptor, DABCYL, near the other end. The fluorescence of the peptide is quenched by […] resonance energy transfer (RET) between the donor and the acceptor, but as the NS3 protease cleaves the peptide the products are released from RET quenching and the fluorescence of the donor becomes apparent.
The peptide substrate was incubated with one of the three recombinant NS3/4A protease complexes, in the absence or presence of a compound of the present disclosure. The inhibitory effects of a compound were determined by monitoring the formation of fluorescent reaction product in real time using a Cytofluor Series 4000.
Assay buffer: 50 mM HEPES, pH 7.5; 0.15 M NaCl; 0.1% Triton; 15% Glycerol; 10 mM βME. Substrate: 2 μM final concentration (from a 2 mM stock solution in DMSO stored at −20° C.). HCV NS3/4A protease type 1a (1b), 2-3 nM final concentration (from a 5 μM stock solution in 25 mM HEPES, pH 7.5, 20% glycerol, 300 mM NaCl, 0.2% Triton-X100, 10 mM βME). […]
Regarding `C=C[C@@H]1C[C@]1(NC(=O)[C@@H]1C[C@@H](Oc2ncc(OC)c3ccc(Cl)cc23)CN1C(=O)[C@@H](Nc1nc(-c2ccc(O)cc2)cs1)C(C)(C)C)C(=O)NS(=O)(=O)C1CC1` [Example 60], the pIC50 is 7.70 to 9.00.
As for `C=C[C@@H]1C[C@]1(NC(=O)[C@@H]1C[C@@H](Oc2ncc(OC)c3ccc(Cl)cc23)CN1C(=O)[C@@H](Nc1nc(-c2cc(F)ccc2F)cs1)C(C)(C)C)C(=O)NS(=O)(=O)C1CC1` [Example 61], the pIC50 was 7.70 to 9.00.
On the same count and under the same terms, in the case of `C=C[C@@H]1C[C@]1(NC(=O)[C@@H]1C[C@@H](Oc2ncc(OC)c3ccc(Cl)cc23)CN1C(=O)[C@@H](Nc1nc(-c2cc3cc(Cl)ccc3o2)cs1)C(C)(C)C)C(=O)NS(=O)(=O)C1CC1` [Example 62] it was 7.70 to 9.00; in that of `C=C[C@@H]1C[C@]1(NC(=O)[C@@H]1C[C@@H](Oc2ncc(OC)c3ccc(Cl)cc23)CN1C(=O)[C@@H](Nc1nc(-c2ccc(C)c(C)c2)cs1)C(C)(C)C)C(=O)NS(=O)(=O)C1CC1` [Example 63], 7.70 to 9.00; in that of `C=C[C@@H]1C[C@]1(NC(=O)[C@@H]1C[C@@H](Oc2ncc(OC)c3ccc(Cl)cc23)CN1C(=O)[C@@H](Nc1nc(-c2ccc(OC)c(F)c2)cs1)C(C)(C)C)C(=O)NS(=O)(=O)C1CC1` [Example 64], 7.70 to 9.00.
Same read-out and setting: in the case of `C=C[C@@H]1C[C@]1(NC(=O)[C@@H]1C[C@@H](Oc2ncc(OC)c3ccc(Cl)cc23)CN1C(=O)[C@@H](Nc1nc(-c2ccc(OCC)cc2)cs1)C(C)(C)C)C(=O)NS(=O)(=O)C1CC1` [Example 65] it was 7.70 to 9.00.
Still for that read-out and setting: in the case of `C=C[C@@H]1C[C@]1(NC(=O)[C@@H]1C[C@@H](Oc2ncc(OC)c3ccc(Cl)cc23)CN1C(=O)[C@@H](Nc1nc(-c2cc(F)cc(F)c2)cs1)C(C)(C)C)C(=O)NS(=O)(=O)C1CC1` [Example 66] it was 7.70 to 9.00.
Turning to `C=C[C@@H]1C[C@]1(NC(=O)[C@@H]1C[C@@H](Oc2ncc(OC)c3ccc(Cl)cc23)CN1C(=O)[C@@H](Nc1nc(-c2ccccc2OC(F)(F)F)cs1)C(C)(C)C)C(=O)NS(=O)(=O)C1CC1` [Example 67], the pIC50 is 6.70 to 7.70.
Turning to `C=C[C@@H]1C[C@]1(NC(=O)[C@@H]1C[C@@H](Oc2ncc(OC)c3ccc(Cl)cc23)CN1C(=O)[C@@H](Nc1nc(-c2cc(C(F)(F)F)ccc2Cl)cs1)C(C)(C)C)C(=O)NS(=O)(=O)C1CC1` [Example 69], the pIC50 was 7.70 to 9.00.
The same measure, in the same setting: in the case of `C=C[C@@H]1C[C@]1(NC(=O)[C@@H]1C[C@@H](Oc2ncc(OC)c3ccc(Cl)cc23)CN1C(=O)[C@@H](Nc1nc(-c2c(F)cccc2C(F)(F)F)cs1)C(C)(C)C)C(=O)NS(=O)(=O)C1CC1` [Example 71] it was 6.70 to 7.70; in that of `C=C[C@@H]1C[C@]1(NC(=O)[C@@H]1C[C@@H](Oc2ncc(OC)c3ccc(Cl)cc23)CN1C(=O)[C@@H](Nc1nc(-c2cccc(C(F)(F)F)c2F)cs1)C(C)(C)C)C(=O)NS(=O)(=O)C1CC1` [Example 72], 7.70 to 9.00.
The same measure, in the same setting: in the case of `C=C[C@@H]1C[C@]1(NC(=O)[C@@H]1C[C@@H](Oc2ccc(OC)c3ccc(Cl)cc23)CN1C(=O)[C@@H](Nc1nc(-c2ccc(C(F)(F)F)cc2F)cs1)C(C)(C)C)C(=O)NS(=O)(=O)C1CC1` [Example 73] it was 7.70 to 9.00.
The same measure, in the same setting: in the case of `C=C[C@@H]1C[C@]1(NC(=O)[C@@H]1C[C@@H](Oc2ncc(OC)c3ccc(Cl)cc23)CN1C(=O)[C@@H](Nc1nc(-c2ccc(C(F)(F)F)c(F)c2)cs1)C(C)(C)C)C(=O)NS(=O)(=O)C1CC1` [Example 75] it was 7.70 to 9.00; in that of `C=C[C@@H]1C[C@]1(NC(=O)[C@@H]1C[C@@H](Oc2ncc(OC)c3ccc(Cl)cc23)CN1C(=O)[C@@H](Nc1nc(-c2cc(Cl)ccc2Cl)cs1)C(C)(C)C)C(=O)NS(=O)(=O)C1CC1` [Example 76], 7.70 to 9.00.
Turning to `C=C[C@@H]1C[C@]1(NC(=O)[C@@H]1C[C@@H](Oc2ncc(OC)c3ccc(Cl)cc23)CN1C(=O)[C@@H](Nc1nc(-c2ccc(OC)c(OC)c2)cs1)C(C)(C)C)C(=O)NS(=O)(=O)C1CC1` [Example 77], the pIC50 was 7.70 to 9.00.
The same measure, in the same setting: in the case of `C=C[C@@H]1C[C@]1(NC(=O)[C@@H]1C[C@@H](Oc2ncc(OC)c3ccc(Cl)cc23)CN1C(=O)[C@@H](Nc1nc(-c2cc(C)ccc2OC(F)F)cs1)C(C)(C)C)C(=O)NS(=O)(=O)C1CC1` [Example 78] it was 7.70 to 9.00; in that of `C=C[C@@H]1C[C@]1(NC(=O)[C@@H]1C[C@@H](Oc2ncc(OC)c3ccc(Cl)cc23)CN1C(=O)[C@@H](Nc1nc(-c2cc(F)c(F)c(F)c2)cs1)C(C)(C)C)C(=O)NS(=O)(=O)C1CC1` [Example 79], 7.70 to 9.00.
The same measure, in the same setting: in the case of `C=C[C@@H]1C[C@]1(NC(=O)[C@@H]1C[C@@H](Oc2ncc(OC)c3ccc(Cl)cc23)CN1C(=O)[C@@H](Nc1nc(-c2cccc(F)c2F)cs1)C(C)(C)C)C(=O)NS(=O)(=O)C1CC1` [Example 80] it was 7.70 to 9.00; in that of `C=C[C@@H]1C[C@]1(NC(=O)[C@@H]1C[C@@H](Oc2ncc(OC)c3ccc(Cl)cc23)CN1C(=O)[C@@H](Nc1nc(-c2cc(F)c(F)cc2F)cs1)C(C)(C)C)C(=O)NS(=O)(=O)C1CC1` [Example 81], 7.70 to 9.00; in that of `C=C[C@@H]1C[C@]1(NC(=O)[C@@H]1C[C@@H](Oc2ncc(OC)c3ccc(Cl)cc23)CN1C(=O)[C@@H](Nc1nc(-c2ccc(F)cc2F)c(C)s1)C(C)(C)C)C(=O)NS(=O)(=O)C1CC1` [Example 82], 7.70 to 9.00.
Still for that read-out and setting: in the case of `C=C[C@@H]1C[C@]1(NC(=O)[C@@H]1C[C@@H](Oc2ncc(OC)c3ccc(Cl)cc23)CN1C(=O)[C@@H](Nc1nc(-c2c(F)cccc2F)cs1)C(C)(C)C)C(=O)NS(=O)(=O)C1CC1` [Example 83] it was 7.70 to 9.00.
Consider `C=C[C@@H]1C[C@]1(NC(=O)[C@@H]1C[C@@H](Oc2ncc(OC)c3ccc(Cl)cc23)CN1C(=O)[C@@H](Nc1nc(-c2sc3ccccc3c2C)cs1)C(C)(C)C)C(=O)NS(=O)(=O)C1CC1` [Example 84], for which the pIC50 is 7.70 to 9.00.
For the compound `C=C[C@@H]1C[C@]1(NC(=O)[C@@H]1C[C@@H](Oc2ncc(OC)c3ccc(Cl)cc23)CN1C(=O)[C@@H](Nc1nc(-c2cc3ccccc3o2)cs1)C(C)(C)C)C(=O)NS(=O)(=O)C1CC1` [Example 87], the pIC50 was 7.70 to 9.00.

The test is the same for the next values; noted with them: read-out: IC50 Range; HCV NS3/4A enzyme assay; numeric values.
With `C=C[C@@H]1C[C@]1(NC(=O)[C@@H]1C[C@@H](Oc2ncc(OC)c3ccc(Cl)cc23)CN1C(=O)C(Nc1ccc(-c2ccccc2)c(OC)c1)C(C)(C)C)C(=O)NS(=O)(=O)C1CC1` (single isomer, unassigned) [Example 18B], the pIC50 was 5.60.
Same read-out and setting: in the case of `C=C[C@@H]1C[C@]1(NC(=O)[C@@H]1C[C@@H](Oc2ncc(OC)c3ccc(Cl)cc23)CN1C(=O)[C@@H](Nc1nc(-c2ccc(C(F)(F)F)cc2C(F)(F)F)cs1)C(C)(C)C)C(=O)NS(=O)(=O)C1CC1` [Example 70] it was 7.05.
Same read-out and setting: in the case of `C=C[C@@H]1C[C@]1(NC(=O)[C@@H]1C[C@@H](Oc2ccc(OC)c3ccc(Cl)cc23)CN1C(=O)[C@@H](Nc1nc(-c2ccc(F)c(C(F)(F)F)c2)cs1)C(C)(C)C)C(=O)NS(=O)(=O)C1CC1` [Example 74] it was 8.70; in that of `C=C[C@@H]1C[C@]1(NC(=O)[C@@H]1C[C@@H](Oc2ncc(OC)c3ccc(Cl)cc23)CN1C(=O)[C@@H](Nc1nc(-c2cc(-c3ccc(Cl)cc3Cl)no2)cs1)C(C)(C)C)C(=O)NS(=O)(=O)C1CC1` [Example 86], 8.70.
